Measurements from patent US20200268762A1, “7-SUBSTITUTED SULFONIMIDOYLPURINONE COMPOUNDS AND DERIVATIVES FOR THE TREATMENT AND PROPHYLAXIS OF LIVER CANCER” (Hoffmann-La Roche Inc., priority 2019, published 2020).
In brackets after ≈: the same amount, converted by molar mass. Like-named read-outs stand apart in the source and are kept apart here. Blank lines part the entries; values can stand above or below the compound they belong to.

Tests used:
[1] = LYSA solubility study; assay type: physicochemical; details: for LYSA of Active Forms: 0.05 M phosphate buffer pH 6.5; for solubility thermodynamic: 0.05 M phosphate buffer, pH 6.5, aqueous buffer, thermodynamic from solid
Description: LYSA study is used to determine the aqueous solubility of tested compounds. Samples were prepared in duplicate from 10 mM DMSO stock solution. After evaporation of DMSO with a centrifugal vacuum evaporator, the compounds were dissolved in 0.05 M phosphate buffer (pH 6.5), stirred for one hour and shaken for two hours. After one night, the solutions were filtered using a microtiter filter plate. Then the filtrate and its 1/10 dilution were analyzed by HPLC-UV. […] The results were in μg/mL. In case the percentage of sample measured in solution after evaporation divided by the calculated maximum of sample amount was bigger than 80%, the solubility was reported as bigger than this value.

[2] = test system: cell lines originating from hepatocellular carcinoma and cholangiocarcinoma; assay: Direct treatment of tumor cell lines, cell counts by nuclei imaging; assay type: cell-based; details: 27 μM down to 270 pM, 72, 120 and 148 hours, relative to DMSO control
Description: Cell lines derived from hepatocellular carcinoma and cholangiocarcinoma (EGI1 and OZ) were maintained and tested in the following media: Huh7 and EGI1 were cultured in DMEM 4.5 g/L glucose (Gibco, Cat #31966-021), 10% FCS (GIBCO, Cat #10500-064 Lot 07G3690K), 2 mM L-glutamine (Thermo Fischer, Cat #25030081), 1 mM sodium pyruvate (GIBCO Cat #11360-039). Hep3B and HepG2 were cultivated in Eagles MEM+Earle's BSS (PAN, Cat # P04-08510), 10% FCS, 2 mM L-glutamine, 0.1 mM NEAA (PAN Cat # P08-32100) and 1 mM sodium pyruvate. JHH1, JHH5, JHH6 and OZ were cultivated in Williams'E (PAN Cat # P04-29050), 10% FCS and 2 mM L-glutamine. JHH2 was cultivated using Williams'E, 10% FCS and 2 mM L-glutamine. HLE was cultivated in DMEM 4.5 g/L glucose, 10% FCS and 2 mM L-glutamine. HLF was cultivated in DMEM 4.5 g/L glucose, 5% FCS, 0.1 mM NEAA and 2 mM L-glutamine. JHH4 was cultivated in Eagles MEM+Earle's BSS, 10% FCS and 2 mM L-glutamine. SkHep1 was cultivated in Eagles MEM+Earle's BSS, 10% FCS, 2 mM L-glutamine, 0.1 mM NEAA and 1 mM sodium pyruvate. SNU449 was cultivated using RPMI 1640 (PAN Cat # P04-18047) 10% FCS and 2 mM L-glutamine. […]
Tumor cell counts were determined using Perkin Elmer Operetta Imaging System and Harmony Software by counting nuclei stained for 20 minutes in full media using Hoechst33342 dye (2 μg/ml, Sigma Cat # B2261). […]

[3] = biological target: T1, human TLR7 (Homo sapiens, UniProt Q9NYK1); assay: HEK293-Blue-hTLR-7 cells assay (SEAP reporter); assay type: cell-based; details: for EC50: SEAP reporter, 20 hrs
T1 sequence (Q9NYK1 27-1049): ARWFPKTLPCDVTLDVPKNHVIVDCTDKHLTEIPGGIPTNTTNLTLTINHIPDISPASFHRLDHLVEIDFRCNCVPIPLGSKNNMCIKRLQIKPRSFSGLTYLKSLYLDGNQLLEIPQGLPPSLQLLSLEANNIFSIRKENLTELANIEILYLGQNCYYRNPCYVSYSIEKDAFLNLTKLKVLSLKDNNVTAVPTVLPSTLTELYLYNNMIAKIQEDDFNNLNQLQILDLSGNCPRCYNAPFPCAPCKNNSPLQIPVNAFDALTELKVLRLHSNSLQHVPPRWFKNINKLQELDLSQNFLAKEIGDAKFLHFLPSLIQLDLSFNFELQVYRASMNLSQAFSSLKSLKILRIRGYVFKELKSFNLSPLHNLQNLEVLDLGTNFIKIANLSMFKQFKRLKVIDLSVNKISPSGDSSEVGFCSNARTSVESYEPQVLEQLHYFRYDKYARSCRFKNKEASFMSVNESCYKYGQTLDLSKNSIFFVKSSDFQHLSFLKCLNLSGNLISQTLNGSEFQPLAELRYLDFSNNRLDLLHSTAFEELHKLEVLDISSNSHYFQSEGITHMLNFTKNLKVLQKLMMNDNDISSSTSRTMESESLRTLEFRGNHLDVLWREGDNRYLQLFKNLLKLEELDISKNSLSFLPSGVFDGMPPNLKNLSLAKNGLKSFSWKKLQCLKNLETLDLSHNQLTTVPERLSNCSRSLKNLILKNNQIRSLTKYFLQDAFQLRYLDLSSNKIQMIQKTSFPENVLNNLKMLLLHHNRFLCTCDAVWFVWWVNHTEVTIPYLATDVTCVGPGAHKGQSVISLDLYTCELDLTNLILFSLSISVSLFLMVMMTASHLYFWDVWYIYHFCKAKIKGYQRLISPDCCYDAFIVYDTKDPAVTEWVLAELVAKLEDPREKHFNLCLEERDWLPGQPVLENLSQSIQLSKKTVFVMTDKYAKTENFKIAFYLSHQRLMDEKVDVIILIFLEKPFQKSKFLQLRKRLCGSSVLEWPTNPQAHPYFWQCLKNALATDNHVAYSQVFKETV
From the text: HEK293-Blue-hTLR-7 cells assay: A stable HEK293-Blue-hTLR-7 cell line was purchased from InvivoGen (Cat. #: hkb-htlr7, San Diego, Calif., USA). These cells were designed for studying the stimulation of human TLR7 by monitoring the activation of NF-κB. A SEAP (secreted embryonic alkaline phosphatase) reporter gene was placed under the control of the IFN-β minimal promoter fused to five NF-κB and AP-1-binding sites. The SEAP was induced by activating NF-κB and AP-1 via stimulating HEK-Blue hTLR7 cells with TLR7 ligands. Therefore the reporter expression was regulated by the NF-κB promoter upon stimulation of human TLR7 for 20 hrs. The cell culture supernatant SEAP reporter activity was determined using QUANTI-Blue™ kit (Cat. #: rep-qbl, Invivogen, San Diego, Ca, USA) at a wavelength of 640 nm, a detection medium that turns purple or blue in the presence of alkaline phosphatase. […] Then 20 μL of the supernatant from each well was incubated with 180 μL Quanti-blue substrate solution at 37° C. for 2 hrs and the absorbance was read at 620-655 nm using a spectrophotometer. The signalling pathway that TLR7 activation leads to downstream NF-κB activation has been widely accepted, and therefore similar reporter assay was also widely used for evaluating TLR7 agonist (Tsuneyasu Kaisho and Takashi Tanaka, Trends in Immunology, Volume 29, Issue 7, July 2008, […]; Hiroaki Hemmi et al, Nature Immunology 3, 196-200 (2002)). The Compounds and Examples of the present invention were tested in HEK293-hTLR-7 assay for their TLR7 agonism activity as described herein and results are listed in Table 1. […] The calculated ratio of EC50(prodrug)/EC50(active form) were within the range from 32 to about 7600.

[4] = test system: iAST mouse model of hepatocellular carcinoma; assay: iAST mouse model of hepatocellular carcinoma, tumor burden; details: iAST mice, Sorafenib 90 mg/kg daily
Description: Per group n=10 were analyzed by One-way ANOVA and Tukey correction shown as individual dots with means±SEM using GraphPad Prism software version 6.

[5] = test system: immune cell infiltrate in iAST tumor; assay: Leukocyte infiltrate of iAST tumors by flow cytometry; assay type: in vivo, mouse; details: day 12 after treatment start
Description: Tumors from iAST mice were treated as described in FIG. 1. […] For flow cytometry, tumors were excised and single cell suspensions obtained by mechanical processing and enzymatic digestion (DNAse 0.01%, Collagenase IV 1 mg/ml). Staining procedures started with Fc receptor blocking using 2.4G2 antibody clone (1:200 dilution, BD Bioscience), and the following antibodies (clones) were used to analyzed leukocyte infiltrate: CD45-FITC (30-F11, BioLegend) and CD11b-BUV737 (M1/70, BD Bioscience). Samples were acquired using a LSR Fortessa machine (BD Bioscience) and analyzed by FlowJo version 10 (Treestar).

[6] = corresponding active form, read-out: HEK293-hTLR-7 EC50 (Active form)

SMILES: CCCS(=N)(=O)c1nc(N)c2[nH]c(=O)n(Cc3ccccc3)c2n1 (single isomer, unassigned) [Compound 1e-A, 6-amino-9-benzyl-2-(propylsulfonimidoyl)-7H-purin-8-one]
- LYSA of Active Forms [1]: 56 µg/mL

SMILES: CCCS(=N)(=O)c1nc(N)c2[nH]c(=O)n(Cc3ccccc3)c2n1 (single isomer, unassigned) [Compound 1e-B, 6-amino-9-benzyl-2-(propylsulfonimidoyl)-7H-purin-8-one]
- solubility thermodynamic ([1]; read-out: LYSA of Active Forms): 50 µg/mL (≈ 144 µM)

SMILES: CCCS(=N)(=O)c1nc(N)c2[nH]c(=O)n(Cc3ccc(C)cc3)c2n1 (single isomer, unassigned) [Compound 36g-A, 6-Amino-2-(propylsulfonimidoyl)-9-(p-tolylmethyl)-7H-purin-8-one]
- solubility thermodynamic ([1]; read-out: LYSA of Active Forms): 6 µg/mL (≈ 16.6 µM)

SMILES: CC[S@@](=N)(=O)c1nc(N)c2[nH]c(=O)n(Cc3ccc(Cl)cc3)c2n1 (single isomer, unassigned) [Compound 41c-B, 6-amino-9-[(4-chlorophenyl)methyl]-2-(ethylsulfonimidoyl)-7H-purin-8-one]
- tumor cell proliferation upon direct treatment [2]: None of the cell lines tested showed a significant increase in proliferation
- tumor cell proliferation upon direct treatment ([2]; listed as compound 41c-B): does not induce enhanced tumor cell proliferation

SMILES: CNC(=O)c1cc(Oc2ccc(NC(=O)Nc3ccc(Cl)c(C(F)(F)F)c3)cc2)ccn1 [Sorafenib, 4-{4-[3-(4-Chlor-3-trifluormethylphenyl)ureido]phenoxy}pyridin-2-carbonsäuremethylamid]
- efficacy in monotherapy (total liver and tumor weights) [4]: highly effective
- Examination of the liver for superficial tumor nodules (tumor nodule free) ([4]; day 12 after treatment start, 41-A 10 mg/kg once a week oral): 0/10 tumor nodule free
- overall lymphoid and myeloid composition of the tumors [5]: changes were clearly driven by Sorafenib

Further lines, results first:

- LYSA of Active Forms [1]: 11 µg/mL
SMILES: CCCS(=N)(=O)c1nc(N)c2[nH]c(=O)n(Cc3ccc(C)cc3)c2n1 (single isomer, unassigned) [Compound 36g-B, 6-Amino-2-(propylsulfonimidoyl)-9-(p-tolylmethyl)-7H-purin-8-one]

- EC50 [3, 6]: 21 nM
SMILES: CC[S@@](=N)(=O)c1nc(N)c2[nH]c(=O)n(Cc3ccc(Br)cc3)c2n1 (single isomer, unassigned) [Compound 47e-A, 6-Amino-9-[(4-bromophenyl)methyl]-2-(ethylsulfonimidoyl)-7H-purin-8-one]

- EC50 [3, 6]: 25 nM
SMILES: CC[S@@](=N)(=O)c1nc(N)c2[nH]c(=O)n(Cc3ccc(Br)cc3)c2n1 (single isomer, unassigned) [Compound 47e-B, 6-Amino-9-[(4-bromophenyl)methyl]-2-(ethylsulfonimidoyl)-7H-purin-8-one]

- EC50 ([3]; prodrug, read-out: HEK293-hTLR-7 EC50 (Prodrug)): 10900 nM
- solubility thermodynamic ([1]; read-out: LYSA of Prodrugs): 154 µg/mL (≈ 302 µM)
SMILES: CCCN(C)C(=O)n1c(=O)n(Cc2ccc(Br)cc2)c2nc([S@](=N)(=O)CC)nc(N)c21 (single isomer, unassigned) [Example 47-A]

- Ratio (EC50(prodrug)/EC50(active form)) [3]: 1378.9
SMILES: CCC[S@](=N)(=O)c1nc(N)c2c(n1)n(Cc1ccc(C)cc1)c(=O)n2C(=O)N(C)CCOC [Example 38-A, 6-Amino-N-(2-methoxyethyl)-N-methyl-8-oxo-2-[S(S)-propylsulfonimidoyl]-9-(p-tolylmethyl)purine-7-carboxamide]
